Where “and” joins values, the source holds several entries; their conditions need not be identical. Identical values can stand only once. Like-named read-outs stand apart in the source and are kept apart here.
Experiments:
HIV-1 WT virus (NL4-3) = assay: microbe, parasite or virus in culture; format: cell-based; details: for EC50: read-out: EC50; for inhibitory potency against HIV-1 (CIC50), result in words: CEMSS cell culture, WT virus (NL4-3), relative to parent compounds 1 and 2
Procedure: Evaluation of these compounds for the inhibition of HIV-1 was determined as the fifty percent cell culture inhibitory concentration (CIC50) in CEMSS cell culture with WT virus (NL4-3).
(§1) In this Example, the antiviral and cellular toxicity of NNRTIs was investigated, using the cytopathic cell killing assay described by Yang (Yang et al., “Characteristics of a Group of Non-nucleoside Reverse Transcriptase Inhibitors with Structural Diversity and Potent Anti-Human Immunodeficiency Virus Activity,” Leukemia 9:S75-S85 [1995]). Briefly, in this method cells (e.g., the CEM-SS cell line, available from the NIAID AIDS Research and Reference Program [ARRRP]) were seeded at a density of 5×10^3 cells/well, into the wells of a 96-well microtiter plate. The cells were then infected with HIV virus (either mutant or WT), at a multiplicity of infection (MOI) previously determined to provide complete cell killing by 6 days of culture post-infection (e.g., MOI of 0.01-0.05). Each of the HIV isolates was pre-titered to induce equivalent levels of infection based on cell killing or virus production, prior to their use in these assays. A range of test compound concentrations was added to the wells in triplicate (e.g., serial half-log dilutions) to evaluate inhibition of HIV infection. Controls for each assay included drug controls (drug colorimetric control wells), drug cytotoxicity control wells (cells with drug), virus control wells (cells with virus), and cell viability controls (cells only). Positive control drugs (e.g. AZT and ddC) were also run in parallel.
(§2) After six days of incubation at 37° C., cell viability was determined spectrophotometrically at 450 nm for each well, using the metabolic reduction of XTT to a soluble colored formazan. (See, Gartner and Popovic, “Virus Isolation and Production, in Aldovini and Walker (eds.), Techniques in HIV Research, Stockton Press, NY, pp. […] [1991]; and Nara and Fischinger, “Quantitative Infectivity Assay for HIV-1 and HIV-2, ” Nature 332:469-470 [1988]).
(§3) The in vitro therapeutic index (TI50) was defined as the fold-difference between the EC50 and IC50. The results for the various compounds are included in FIGS. 8 and 19.

HIV-1 isolate Y188C = assay: Cytopathic cell killing assay, MT-4 cells, isolate Y188C; format: cell-based; details: values in μM
Description: (§4) The various HIV isolates tested in the Figures are those corresponding to wild-type virus (NL4-3) and the other strains listed by their RT mutations. The three 4×AZT isolates included in the Figures represent AZT drug-resistant variants. For example, the 4×AZT/L100I isolate has five mutations: four mutations confer increased resistance to AZT, and the other mutation is located within the NNRTI binding pocket. TZB and nevir. (nevirapine) are two well-known NNRTIs, included in this experiment for comparison purposes.
as §1, §2, §3

HIV-1 isolate Y181C = assay: Cytopathic cell killing assay, MT-4 cells, isolate Y181C; format: cell-based
Description: as §4, §1, §2, §3

HIV-1 isolate V108I = assay: Cytopathic cell killing assay, MT-4 cells, isolate V108I; format: cell-based; details: values in μM
Description: as §4, §1, §2, §3

HIV-1 isolate L100I = assay: Cytopathic cell killing assay, MT-4 cells, isolate L100I; format: cell-based
Description: as §4, §1, §2, §3

HIV-1 WT RT = HIV-1 WT RT (Human immunodeficiency virus type 1 group M subtype B, UniProt P03366); assay: biochemical; format: biochemical
HIV-1 isolate K103N = assay: Cytopathic cell killing assay, MT-4 cells, isolate K103N; format: cell-based; details: for EC50: values in μM
Description: as §4, §1, §2, §3

HIV-1 NL4-3 (WT) = assay: Cytopathic cell killing assay, MT-4 cells, isolate NL4-3 (WT); format: cell-based
Description: as §4, §1, §2, §3

[1] = tested on: WT and HIV-1 variants containing amino acid substitutions in RT; format: cell-based; details: cytopathic cell killing assay, NNRTI-resistant HIV isolates
Description: In these Tables, antiviral data are reported as the quantity of drug in μM required to reduce cell killing or virus production by 50% (EC50). The various HIV isolates tested in the Figures are those corresponding to wild-type virus (NL4-3) and the other strains listed by their RT mutations. The three 4×AZT isolates included in the Figures represent AZT drug-resistant variants.
Briefly, in this method cells (e.g., the CEM-SS cell line, available from the NIAID AIDS Research and Reference Program [ARRRP]) were seeded at a density of 5×10^3 cells/well, into the wells of a 96-well microtiter plate. The cells were then infected with HIV virus (either mutant or WT), at a multiplicity of infection (MOI) previously determined to provide complete cell killing by 6 days of culture post-infection (e.g., MOI of 0.01-0.05). Each of the HIV isolates was pre-titered to induce equivalent levels of infection based on cell killing or virus production, prior to their use in these assays. A range of test compound concentrations was added to the wells in triplicate (e.g., serial half-log dilutions) to evaluate inhibition of HIV infection. Controls for each assay included drug controls (drug colorimetric control wells), drug cytotoxicity control wells (cells with drug), virus control wells (cells with virus), and cell viability controls (cells only). Positive control drugs (e.g. AZT and ddC) were also run in parallel.
as §2
Antiviral and toxicity data were reported as the quantity of drug required to inhibit 50% of virus-induced cell killing or virus production (EC50), and the quantity of drug required to […] (IC50). The in vitro therapeutic index (TI50) was defined as the fold-difference between the EC50 and IC50.

HIV-1 isolate V179D = assay: Cytopathic cell killing assay, MT-4 cells, isolate V179D; format: cell-based; details: MT-4 cells
Description: as §4, §1, §2, §3

HIV-1 isolate K101E = assay: Cytopathic cell killing assay, MT-4 cells, isolate K101E; format: cell-based
Description: as §4, §1, §2, §3

[2] = Human immunodeficiency virus 1, NL43, CEM-SS, Table 7, drug concentration required to reduce cell killing or virus production by 50%, WT
[3] = Human immunodeficiency virus 1, MT4, read-out: EC50, isolate Y188C, Table 10
[4] = Human immunodeficiency virus 1, MT4, read-out: EC50, isolate Y181C, Table 10, values in μM
[5] = Human immunodeficiency virus 1, MT4, read-out: EC50, isolate V108I, Table 10
[6] = Human immunodeficiency virus 1, MT4, read-out: EC50, isolate K103N, Table 10
[7] = Human immunodeficiency virus 1, NL43, CEM-SS, Table 11, CEMSS/NL4-3, NRVC = no reduction in viral CPE
[8] = Human immunodeficiency virus 1, MT4, read-out: EC50, isolate Y181C, Table 8, MT-4 cells
[9] = Human immunodeficiency virus 1, NL43, MT4, Table 8, MT-4 cells, read-out: EC50, isolate NL4-3

Fc1cccc(F)c1Cn1c(-c2c(F)cccc2F)nc2c(Br)cccc21 [Compound 3400, 4-bromo-1-(2,6-difluorobenzyl)-2-(2,6-difluorophenyl)benzimidazole]
EC50 (HIV-1 WT virus (NL4-3); [2]): 0.37 µM
EC50 (HIV-1 isolate Y188C; [3]): 3.7 µM
melting point: 147 to 148 °C
EC50 (HIV-1 isolate Y181C; [4]): 10.7 µM
EC50 (HIV-1 isolate V108I; [5]): 4.2 µM

CC1Cn2c(=O)[nH]c3cccc(c32)CN1 (stereo not shown) [TIBO, 4,5,6,7-tetrahydro-5-methylimidazo[4,5,1-jk][1,4]benzodiazepin-2(1H)-one, reference compound]
EC50 (HIV-1 isolate L100I; Human immunodeficiency virus 1, MT4, read-out: EC50, isolate L1001, Table 4, MT-4 cells): ≥ 17.4 µM

Cc1cccc2c1nc(-c1c(F)cccc1F)n2Cc1c(Cl)cccc1Cl [Compound 30, 1-(2,6-dichlorobenzyl)-2-(2,6-difluorophenyl)-4-methylbenzimidazole]
RT inhibition, result in words (HIV-1 WT RT; WT RT): decrease in inhibition
melting point: 202 to 203 °C

Cc1ccccc1-c1nc2ccccc2n1Cc1c(F)cccc1F [Compound 36, 1-(2,6-difluorobenzyl)-2-(2-methylphenyl)benzimidazole]
RT inhibition, result in words (HIV-1 WT RT; WT RT): two-fold decrease in RT inhibition
melting point: 139 °C

CN(C)c1cccc2c1nc(-c1c(F)cccc1F)n2Cc1c(F)cccc1F [Compound 3700, 1-(2,6-difluorobenzyl)-2-(2,6-difluorophenyl)-4-N,N-dimethylaminobenzimidazole]
inhibition at 1 µM (HIV-1 WT RT; Table 7, 1 μM drug, WT HIV-1 RT, read-out: % inhibn (1 μM)): 77%
IC50 (HIV-1 WT RT; read-out: IC50): 40 µM
EC50 (HIV-1 isolate K103N; [6]): > 100 µM
EC50 (HIV-1 WT virus (NL4-3); [2]): 2.37 µM
EC50 (HIV-1 WT virus (NL4-3); [7]): 2.37 µM
melting point: 155 to 156 °C
EC50 (HIV-1 isolate Y181C; [4]): > 100 µM
EC50 (HIV-1 isolate L100I; Human immunodeficiency virus 1, MT4, read-out: EC50, isolate L100I, Table 10, values in μM): 31.6 µM
EC50 (HIV-1 NL4-3 (WT); Human immunodeficiency virus 1, NL43, MT4, Table 10, values in μM, read-out: EC50, isolate NL4-3 (WT)): 2.88 µM

CNc1cccc2c1nc(-c1c(F)cccc1F)n2Cc1c(F)cccc1F [Compound 5012, 1-(2,6-difluorobenzyl)-2-(2,6-difluorophenyl)-4-(N-methylamino)benzimidazole]
IC50 (HIV-1 WT RT): 4.94 µM
% inhibn (1 μM) (HIV-1 WT RT; Table 7, 1 μM drug, WT HIV-1 RT): 24%
inhibitory potency against HIV-1 (CIC50), result in words (HIV-1 WT virus (NL4-3)): significantly poorer inhibitors
EC50 (HIV-1 WT virus (NL4-3); [2]): 1.7 µM
EC50 (HIV-1 WT virus (NL4-3); [7]): 1.7 µM
cross-resistance profile, result in words [1]: inhibit HIV-1 better than TZB
EC50 (HIV-1 isolate V179D; Human immunodeficiency virus 1, MT4, read-out: EC50, isolate V179D, Table 8): 3.8 µM

Cc1cccc2c1nc(-c1c(F)cccc1F)n2Cc1ccccc1 [Compound 29, 1-benzyl-2-(2,6-difluorophenyl)-4-methylbenzimidazole]
RT inhibition, result in words (HIV-1 WT RT; WT RT): decrease in inhibition
melting point: 112 to 117 °C

Fc1cccc(F)c1Cn1c(-c2c(F)cccc2F)nc2c(Cl)cccc21 [Compound 3500, 4-chloro-1-(2,6-difluorobenzyl)-2-(2,6-difluorophenyl)benzimidazole]
EC50 (HIV-1 isolate K103N; [6]): 10.2 µM
inhibitory potency against HIV-1 (CIC50), result in words (HIV-1 WT virus (NL4-3)): modest potency-enhancing effect
EC50 (HIV-1 WT virus (NL4-3); [2]): 0.44 µM
EC50 (HIV-1 WT virus (NL4-3); [7]): 0.44 µM
EC50 (HIV-1 isolate Y188C; [3]): 3.4 µM
melting point: 163 to 164 °C and 163 °C
cross-resistance profile, result in words [1]: inhibit HIV-1 better than TZB
EC50 (HIV-1 isolate Y181C; [8]): 7.3 µM
EC50 (HIV-1 isolate Y181C; [4]): 8.4 µM
EC50 (HIV-1 NL4-3 (WT); [9]): 0.4 µM
EC50 (HIV-1 isolate V108I; [5]): 3.2 µM

Nc1cccc2c1nc(-c1c(F)cccc1F)n2Cc1c(F)cccc1F [Example 53]
IC50 (HIV-1 WT RT; Table 11, WT RT, read-out: IC50): 0.28 µM
EC50 (HIV-1 WT virus (NL4-3); [7]): 0.46 µM
melting point: 139 to 141 °C

Cc1ccnc2c1NC(=O)c1cccnc1N2C1CC1 [nevir., nevirapine, reference compound]
activity against K103N, result in words (HIV-1 isolate K103N; cytopathic cell killing assay): ineffective
EC50 (HIV-1 WT virus (NL4-3); [7]): 0.035 µM
EC50 (HIV-1 isolate Y181C; [8]): 4.9 µM
EC50 (HIV-1 isolate V179D; Human immunodeficiency virus 1, MT4, read-out: EC50, isolate V179D, Table 9): 0.2 µM
EC50 (HIV-1 isolate K101E; Human immunodeficiency virus 1, MT4, read-out: EC50, isolate K101E, Table 8, MT-4 cells): 1.1 µM
EC50 (HIV-1 NL4-3 (WT); [9]): 0.04 µM

Fc1cccc(F)c1-c1nc2ccccc2n1Cc1ccccc1 [Compound 28, 1-benzyl-2-(2,6-difluorophenyl)benzimidazole]
RT inhibition, result in words (HIV-1 WT RT; WT RT): decrease in inhibition
melting point: 124 °C

[N-]=[N+]=NCc1cccc2c1nc(-c1c(F)cccc1F)n2Cc1c(F)cccc1F [Compound 70, 1-(2,6-difluorobenzyl)-2-(2,6-difluorophenyl)benzimidazol-4-yl-azidomethyl]
EC50 (HIV-1 isolate K103N; Table 10, read-out: EC50, isolate K103N): 1.48 µM
EC50 (HIV-1 WT virus (NL4-3); Table 11, CEMSS/NL4-3, NRVC = no reduction in viral CPE): 0.045 µM
EC50 (HIV-1 isolate Y188C; Table 10, read-out: EC50, isolate Y188C): 0.22 µM
EC50 (HIV-1 isolate Y181C; Table 10, values in μM, read-out: EC50, isolate Y181C): 0.82 µM
EC50 (HIV-1 isolate L100I; Table 10, values in μM, read-out: EC50, isolate L100I): 0.06 µM
EC50 (HIV-1 isolate K101E; Table 10, values in μM, read-out: EC50, isolate K101E): 0.6 µM
EC50 (HIV-1 NL4-3 (WT); Table 10, values in μM, read-out: EC50, isolate NL4-3 (WT)): 0.045 µM
EC50 (HIV-1 isolate V108I; Table 10, read-out: EC50, isolate V108I): 0.026 µM

Reference: patent US6894068B2, “Substituted benzimidazoles as non-nucleoside inhibitors of reverse transcriptase” (The United States of America as represented by the …, priority 1997, dated 2005)
